Source: patent US10501479B2, “Benzenesulfonyl-asymmetric ureas and medical uses thereof” (HELSINN HEALTHCARE SA, priority 2016, dated 2019)

Experiments:
Type in all cases: cell-based
[1] = biological target: T1, recombinant human ghrelin receptor (HEK293/GRLN) (Homo sapiens, UniProt Q92847); assay: Ghrelin inverse agonist potency (EC50) with IP-1 (IP-One HTRF) assay; settings: IP-1 assay, HEK293/GRLN; read-out: Activity EC50 (ghrelin inverse agonist potency)
T1 construct: expressed in transfected cells
T1 sequence (Q92847 whole entry): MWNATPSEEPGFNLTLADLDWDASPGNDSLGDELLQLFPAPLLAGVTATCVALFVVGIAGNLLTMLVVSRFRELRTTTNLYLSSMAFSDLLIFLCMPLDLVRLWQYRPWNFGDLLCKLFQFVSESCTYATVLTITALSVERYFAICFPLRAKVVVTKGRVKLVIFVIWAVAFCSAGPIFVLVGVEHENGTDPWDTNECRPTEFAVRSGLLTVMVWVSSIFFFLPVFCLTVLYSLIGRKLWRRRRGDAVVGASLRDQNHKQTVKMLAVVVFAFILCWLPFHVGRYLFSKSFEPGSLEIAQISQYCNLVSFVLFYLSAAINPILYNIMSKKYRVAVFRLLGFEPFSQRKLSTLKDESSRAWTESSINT
In short: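 IP-1 accumulation was measured by HTRF (IP1-d2/Tb-cryptate, 620/665 nm read after 1 hour at room temperature) following 1 hour of compound treatment at 37° C. Cells were HEK293 stably expressing human ghrelin receptor, plated a day earlier on Matrigel. Inverse agonist potency was reported as EC50.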

[2] = biological target: T2, GHSR-1a (HEK293/GHSR1a cell line) (Homo sapiens, UniProt Q92847); assay: Ghrelin agonist potency (EC50) with calcium FLIPR assay; settings: HEK293/GHSR1a, read-out: Activity EC50/EMax: EC50 (ghrelin agonist potency)
T2 construct: expressed in transfected cells; host or cells: HEK293/GHSR1a cell line
T2 sequence (Q92847 whole entry): as above
In short: (§1)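 Fluorescence read-out of intracellular calcium over 2 min. Agonist EC50 came from compound added alone at t=20 sec. Antagonist IC50 came from the reduction of the response to 10 nM ghrelin co-added with compound at t=20 sec. Both were fitted from dose-response data.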

[3] = biological target: T2, GHSR-1a (HEK293/GHSR1a cell line); assay: Ghrelin antagonist potency (IC50) with calcium FLIPR assay, ghrelin 10 nM; settings: HEK293/GHSR1a, ghrelin 10 nM, read-out: Activity IC50 (ghrelin antagonist potency)
In short: as §1

## CN1Cc2ccc(CS(=O)(=O)c3ccc(NC(=O)NC4COc5ccccc54)cc3)cc2C1 (stereo not drawn) [H1331, 1-(2,3-dihydrobenzofuran-3-yl)-3-(4-(((2-methylisoindolin-5-yl)methyl)sulfonyl)phenyl)urea]
[1]
  EC50: 130 nM
[2]
  EC50: > 30 µM
[3]
  IC50: 213 nM

## C[C@@H](NC(=O)Nc1ccc(S(=O)(=O)Cc2ccc(C3CCCN3)cc2)cc1)c1ccccc1 (stereo partly drawn) [H1332, 1-((R)-1-phenylethyl)-3-(4-((4-(pyrrolidin-2-yl)benzyl)sulfonyl)phenyl)urea]
[1]
  EC50: 42.1 nM
[2]
  EC50: > 30 µM
[3]
  IC50: 73.2 nM

## CN1Cc2ccc(CS(=O)(=O)c3ccc(NC(=O)N[C@H]4CCCc5ccccc54)cc3)cc2C1 [H1335, (S)-1-(4-(((2-methylisoindolin-5-yl)methyl)sulfonyl)phenyl)-3-(1,2,3,4-tetrahydronaphthalen-1-yl)urea]
[1]
  EC50: 69.9 nM
[2]
  EC50: > 30 µM
[3]
  IC50: 133 nM

## CN1Cc2ccc(CS(=O)(=O)c3ccc(NC(=O)N[C@@H]4CCCc5ccccc54)cc3)cc2C1 [H1336, (R)-1-(4-(((2-methylisoindolin-5-yl)methyl)sulfonyl)phenyl)-3-(1,2,3,4-tetrahydronaphthalen-1-yl)urea]
[1]
  EC50: 263 nM
[2]
  EC50: > 30 µM
[3]
  IC50: 381 nM

## CC(NC(=O)Nc1ccc(S(=O)(=O)Cc2ccc3c(c2)CN(CC#N)C3)cc1)c1ccccc1 (stereo not drawn) [H1339, 1-(4-(((2-(cyanomethyl)isoindolin-5-yl)methyl)sulfonyl)phenyl)-3-(1-phenylethyl)urea]
[1]
  EC50: 176 nM
[2]
  EC50: > 30 µM
[3]
  IC50: 309 nM

## CC(NC(=O)Nc1ccc(S(=O)(=O)Cc2ccc3c(c2)CN(CC2CCCO2)C3)cc1)c1ccccc1 (stereo not drawn) [H1341, 1-(1-phenylethyl)-3-(4-(((2-((tetrahydrofuran-2-yl)methyl)isoindolin-5-yl)methyl)sulfonyl)phenyl)urea]
[1]
  EC50: 20.9 nM
[2]
  EC50: > 30 µM
[3]
  IC50: 69.7 nM

## C[C@@H](NC(=O)Nc1ccc(S(=O)(=O)Cc2cc3c(s2)CN(C)C3)cc1)c1ccccc1 [H1348, (R)-1-(4-(((5-methyl-5,6-dihydro-4H-thieno[2,3-c]pyrrol-2-yl)methyl)sulfonyl)phenyl)-3-(1-phenylethyl)urea]
[1]
  EC50: 19.9 nM
[2]
  EC50: > 30 µM
[3]
  IC50: 65 nM

## CN1CCc2cc(CS(=O)(=O)c3ccc(NC(=O)NCc4cccc(Cl)c4Cl)cc3)ccc2C1 [H1349, 1-(2,3-dichlorobenzyl)-3-(4-(((2-methyl-1,2,3,4-tetrahydroisoquinolin-6-yl)methyl)sulfonyl)phenyl)urea]
[1]
  EC50: 29 nM
[2]
  EC50: > 30 µM
[3]
  IC50: 15.3 nM

## CC(NC(=O)Nc1ccc(S(=O)(=O)Cc2ccc3c(c2)C[N+](C)([O-])C3)cc1)c1ccccc1 (stereo not drawn) [H1350, 2-methyl-5-(((4-(3-(1-phenylethyl)ureido)phenyl)sulfonyl)methyl)isoindoline 2-oxide]
[1]
  EC50: 7460 nM
[2]
  EC50: > 30 µM
[3]
  IC50: 18200 nM

## C[C@@H](NC(=O)Nc1ccc(S(=O)(=O)Cc2csc3c2CN(C)C3)cc1)c1ccccc1 [H1351, (R)-1-(4-(((5-methyl-5,6-dihydro-4H-thieno[2,3-c]pyrrol-3-yl)methyl)sulfonyl)phenyl)-3-(1-phenylethyl)urea]
[1]
  EC50: 6960 nM
[2]
  EC50: > 30 µM
[3]
  IC50: 3450 nM

## C[C@H](NC(=O)Nc1ccc(S(=O)(=O)Nc2ccc3c(c2)CCN(C)C3)cc1)c1cccc(Cl)c1Cl [H1352, (S)-4-(3-(1-(2,3-dichlorophenyl)ethyl)ureido)-N-(2-methyl-1,2,3,4-tetrahydroisoquinolin-6-yl)benzenesulfonamide]
[1]
  EC50: 7.7 nM
[2]
  EC50: > 30 µM
[3]
  IC50: 4.6 nM

## CC(=O)N1CC(NC(=O)Nc2ccc(S(=O)(=O)Cc3ccc4c(c3)CNC4)cc2)c2ccccc21 (stereo not drawn) [H1353, 1-(1-acetylindolin-3-yl)-3-(4-((isoindolin-5-ylmethyl)sulfonyl)phenyl)urea]
[1]
  EC50: 8230 nM
[2]
  EC50: > 30 µM
[3]
  IC50: 5100 nM

## CC(=O)N1CC(NC(=O)Nc2ccc(S(=O)(=O)Cc3ccc4c(c3)CN(C)C4)cc2)c2ccccc21 (stereo not drawn) [H1354, 1-(1-acetylindolin-3-yl)-3-(4-(((2-methylisoindolin-5-yl)methyl)sulfonyl)phenyl)urea]
[1]
  EC50: 8610 nM
[2]
  EC50: > 30 µM
[3]
  IC50: 8900 nM

## C[C@@H](NC(=O)Nc1ccc(S(=O)(=O)Cc2ccc3c(c2)CN(C)C3(C)C)cc1)c1ccccc1 [H1357, (R)-1-(1-phenylethyl)-3-(4-(((1,1,2-trimethylisoindolin-5-yl)methyl)sulfonyl)phenyl)urea]
[1]
  EC50: 36 nM
[2]
  EC50: > 30 µM
[3]
  IC50: 57 nM

## CN1Cc2ccc(CS(=O)(=O)c3ccc(NC(=O)NC4CNc5ccccc54)cc3)cc2C1 (stereo not drawn) [H1358, 1-(indolin-3-yl)-3-(4-(((2-methylisoindolin-5-yl)methyl)sulfonyl)phenyl)urea]
[1]
  EC50: 1820 nM
[2]
  EC50: > 30 µM
[3]
  IC50: 1880 nM

## CC(NC(=O)Nc1ccc(S(=O)(=O)Cc2cc3c(cc2F)CN(C)CC3)cc1)c1cccc(Cl)c1Cl (stereo not drawn) [H1366, 1-(1-(2,3-dichlorophenyl)ethyl)-3-(4-(((7-fluoro-2-methyl-1,2,3,4-tetrahydroisoquinolin-6-yl)methyl)sulfonyl)phenyl)urea]
[1]
  EC50: 2.5 nM
[2]
  EC50: > 30 µM
[3]
  IC50: 21.5 nM

## CC(NC(=O)Nc1ccc(S(=O)(=O)Cc2ccc3c(c2F)CCN(C)C3)cc1)c1cccc(Cl)c1Cl (stereo not drawn) [H1367, 1-(1-(2,3-dichlorophenyl)ethyl)-3-(4-(((5-fluoro-2-methyl-1,2,3,4-tetrahydroisoquinolin-6-yl)methyl)sulfonyl)phenyl)urea]
[1]
  EC50: 3.3 nM
[2]
  EC50: > 30 µM
[3]
  IC50: 21.2 nM

## COc1cc2c(cc1CS(=O)(=O)c1ccc(NC(=O)NC(C)c3cccc(Cl)c3Cl)cc1)CCN(C)C2 (stereo not drawn) [H1368, 1-(1-(2,3-dichlorophenyl)ethyl)-3-(4-(((7-methoxy-2-methyl-1,2,3,4-tetrahydroisoquinolin-6-yl)methyl)sulfonyl)phenyl)urea]
[1]
  EC50: 2.8 nM
[2]
  EC50: > 30 µM
[3]
  IC50: 20.3 nM

## COc1c(CS(=O)(=O)c2ccc(NC(=O)NC(C)c3cccc(Cl)c3Cl)cc2)ccc2c1CCN(C)C2 (stereo not drawn) [H1369, 1-(1-(2,3-dichlorophenyl)ethyl)-3-(4-(((5-methoxy-2-methyl-1,2,3,4-tetrahydroisoquinolin-6-yl)methyl)sulfonyl)phenyl)urea]
[1]
  EC50: 1.1 nM
[2]
  EC50: > 30 µM
[3]
  IC50: 3.66 nM

## CC(NC(=O)Nc1ccc(S(=O)(=O)CC2CCC(NCC3CC3)CC2)cc1)c1cccc(Cl)c1Cl (stereo not drawn) [H1371, 1-(4-(((4-((cyclopropylmethyl)amino)cyclohexyl)methyl)sulfonyl)phenyl)-3-(1-(2,3-dichlorophenyl)ethyl)urea]
[1]
  EC50: 231 nM
[2]
  EC50: > 30 µM
[3]
  IC50: 2440 nM

## CCN(CC)C1CCC(CS(=O)(=O)c2ccc(NC(=O)NC(C)c3cccc(Cl)c3Cl)cc2)CC1 (stereo not drawn) [H1372, 1-(1-(2,3-dichlorophenyl)ethyl)-3-(4-(((4-(diethylamino)cyclohexyl)methyl)sulfonyl)phenyl)urea]
[1]
  EC50: 936 nM
[2]
  EC50: > 30 µM
[3]
  IC50: 18200 nM

## CC(NC(=O)Nc1ccc(S(=O)(=O)CC2CCCN(C(C)C)C2)cc1)c1cccc(Cl)c1Cl (stereo not drawn) [H1376, 1-(1-(2,3-dichlorophenyl)ethyl)-3-(4-(((1-isopropylpiperidin-3-yl)methyl)sulfonyl)phenyl)urea]
[1]
  EC50: 631 nM
[2]
  EC50: > 30 µM
[3]
  IC50: 6890 nM

## CC(NC(=O)N(C)c1ccc(S(=O)(=O)Cc2ccc3c(c2)CN(C)C3)cc1)c1ccccc1 (stereo not drawn) [H1377, 1-methyl-1-(4-(((2-methylisoindolin-5-yl)methyl)sulfonyl)phenyl)-3-(1-phenylethyl)urea]
[1]
  EC50: 384 nM
[2]
  EC50: > 30 µM
[3]
  IC50: 5520 nM

## COc1cc2c(cc1CS(=O)(=O)c1ccc(NC(=O)NC(C)c3cccc(Cl)c3Cl)cc1)CCNC2 (stereo not drawn) [H1392, 1-(1-(2,3-dichlorophenyl)ethyl)-3-(4-(((7-methoxy-1,2,3,4-tetrahydroisoquinolin-6-yl)methyl)sulfonyl)phenyl)urea]
[1]
  EC50: 52.6 nM
[2]
  EC50: > 30 µM
[3]
  IC50: 98.8 nM

## CC(NC(=O)Nc1ccc(S(=O)(=O)Cc2cc3c(c(C(F)(F)F)c2)CNCC3)cc1F)c1cccc(Cl)c1Cl (stereo not drawn) [H1400, 1-(1-(2,3-dichlorophenyl)ethyl)-3-(2-fluoro-4-(((8-(trifluoromethyl)-1,2,3,4-tetrahydroisoquinolin-6-yl)methyl)sulfonyl)phenyl)urea]
[1]
  EC50: 15.4 nM
[2]
  EC50: > 30 µM
[3]
  IC50: 70.5 nM

## CC(NC(=O)Nc1ccc(S(=O)(=O)Cc2cc(Cl)c3c(c2)CNC3)cc1)c1ccccc1 (stereo not drawn) [H1405, 1-(4-(((7-chloroisoindolin-5-yl)methyl)sulfonyl)phenyl)-3-(1-phenylethyl)urea]
[1]
  EC50: 90 nM
[2]
  EC50: > 30 µM
[3]
  IC50: 1860 nM

## CC(NC(=O)Nc1ccc(S(=O)(=O)Cc2ccc3c(c2)CNC3)cn1)c1ccccc1 (stereo not drawn) [H1408, 1-(5-((isoindolin-5-ylmethyl)sulfonyl)pyridin-2-yl)-3-(1-phenylethyl)urea]
[1]
  EC50: 36 nM
[2]
  EC50: > 30 µM
[3]
  IC50: 162 nM

## CC(c1ccccc1)N(C)C(=O)Nc1ccc(S(=O)(=O)Cc2ccc3c(c2F)CNC3)cc1 (stereo not drawn) [H1409, 3-(4-(((4-fluoroisoindolin-5-yl)methyl)sulfonyl)phenyl)-1-methyl-1-(1-phenylethyl)urea]
[1]
  EC50: 74.5 nM
[2]
  EC50: > 30 µM
[3]
  IC50: 282 nM
